Reference: patent US20260102507A1, “CAMPTOTHECIN DERIVATIVE FOR TREATING OR PREVENTING CANCER AND ANTIBODY-DRUG CONJUGATE THEREOF” (CHENGDU BRILLIANT PHARMACEUTICAL CO., LTD., priority 2023, published 2026)
Where two headings read alike, the source gives them in different places.

Experiments:
Assay in all cases: Cytotoxicity assay of camptothecin derivative toxins (Example A')
Format in all cases: cell-based
[1] = tested on: human ovarian cancer cell line SK-OV-3; settings: read-out: IC50 (nM) SK-OV-3
Description: (§1) The camptothecin derivatives of the Examples of the present application were serially diluted with DMSO and the corresponding cell culture medium, and were added into a white-walled 96-well plate. Tumor cells (human ovarian cancer cell line SK-OV-3; human colon cancer cell line HCT116; human lung adenocarcinoma cell line A549; human lung adenocarcinoma cell line NCI-H441; human oral epidermoid carcinoma cell line KB) in logarithmic growth phase were digested and adjusted to a density of approximately 3.33×10^4 cells/mL. The cells were plated at 90 µL/well on the white-walled 96-well plate that was pre-loaded with the samples, followed by incubation at 37° C. in a 5% CO2 incubator for 3 days. The growth inhibitory effect of the small molecule compounds on tumor cells was evaluated by the Cell Titer Turbo 2.0 Luminescent Cell Viability Assay (Damas life, RA-GL11). Relative light unit (RLU) values were read from the cell culture plates using a microplate reader. Experimental data were analyzed with GraphPad Prism 8.0 software to calculate IC50 values.

[2] = tested on: human lung adenocarcinoma cell line A549; settings: read-out: IC50 (nM) A549
Description: as §1

[3] = tested on: human lung adenocarcinoma cell line NCI-H441; settings: read-out: IC50 (nM) NCI-H441
Description: as §1

[4] = tested on: human colon cancer cell line HCT116; settings: read-out: IC50 (nM) HCT116
Description: as §1

[5] = Homo sapiens, SK-OV-3, 72 h, Example A', 3 days incubation
[6] = Homo sapiens, A549, 72 h, Example A', 3 days incubation
[7] = Homo sapiens, NCI-H441, 72 h, Example A', 3 days incubation
[8] = Homo sapiens, HCT-116, 72 h, Example A', 3 days incubation

| Compound | IC50 [1, 5] | IC50 [2, 6] | IC50 [3, 7] | IC50 [4, 8] | other results |
| --- | --- | --- | --- | --- | --- |
| CC[C@@]1(O)C(=O)OCc2c1cc1n(c2=O)Cc2c-1nc1cc(F)c(C)cc1c2N[C@H]1CC[C@H](CO)CC1 [STI-F15, (S)-4-ethyl-8-fluoro-4-hydroxy-11-(((1r,4S)-4-(hydroxymethyl)cyclohexyl)amino)-9-methyl-1,12-dihydro-14H-pyrano[3′,4′:6,7]indolizino[1,2-b]quinoline-3,14(4H)-dione] |  |  |  |  | IC50 ([1]; Example A', 3 days incubation): 28.7 nM; IC50 ([2]; Example A', 3 days incubation): 542 nM; IC50 ([3]; Example A', 3 days incubation): 50.9 nM; IC50 ([4]; Example A', 3 days incubation): 22.6 nM |
| CC[C@@]1(O)C(=O)OCc2c1cc1n(c2=O)Cc2c-1nc1cc(F)c(C)cc1c2NCCCCCO [STI-F17, (S)-4-ethyl-8-fluoro-4-hydroxy-11-((5-hydroxypentyl)amino)-9-methyl-1,12-dihydro-14H-pyrano[3′,4′:6,7]indolizino[1,2-b]quinoline-3,14(4H)-dione] | 20 nM | 377 nM | 28.7 nM | 17.2 nM |  |
| CC[C@@]1(O)C(=O)OCc2c1cc1n(c2=O)Cc2c-1nc1cc3c(cc1c2NCCCCO)OCO3 [STI-F18, (S)-7-ethyl-7-hydroxy-14-((4-hydroxybutyl)amino)-10,13-dihydro-11H-[1,3]dioxolo[4,5-g]pyrano[3′,4′:6,7]indolizino[1,2-b]quinoline-8,11(7H)-dione] |  |  |  |  | IC50 ([1]; Homo sapiens, SK-OV-3, 72 h): 44.6 nM; IC50 ([2]; Homo sapiens, A549, 72 h): 454 nM; IC50 ([3]; Homo sapiens, NCI-H441, 72 h): 42 nM; IC50 ([4]; Homo sapiens, HCT-116, 72 h): 58.7 nM |
| CC[C@@]1(O)C(=O)OCc2c1cc1n(c2=O)Cc2c-1nc1cc(F)c(C)cc1c2N1CCC(CO)CC1 [STI-F14, (S)-4-ethyl-8-fluoro-4-hydroxy-11-(4-(hydroxymethyl)piperidin-1-yl)-9-methyl-1,12-dihydro-14H-pyrano[3′,4′:6,7]indolizino[1,2-b]quinoline-3,14(4H)-dione] |  | 156 nM | 11.1 nM | 12.4 nM |  |
| CC[C@@]1(O)C(=O)OCc2c1cc1n(c2=O)Cc2c-1nc1cc(F)c(C)cc1c2NC/C=C/CO [STI-F8, (S,E)-4-ethyl-8-fluoro-4-hydroxy-11-((4-hydroxybut-2-en-1-yl)amino)-9-methyl-1,12-dihydro-14H-pyrano[3′,4′:6,7]indolizino[1,2-b]quinoline-3,14(4H)-dione] | 12.3 nM | 278 nM | 24.9 nM | 11.4 nM |  |
| CC[C@@]1(O)C(=O)OCc2c1cc1n(c2=O)Cc2c-1nc1cc(F)c(C)cc1c2NCCO [STI-F5, (S)-4-ethyl-8-fluoro-4-hydroxy-11-((2-hydroxyethyl)amino)-9-methyl-1,12-dihydro-14H-pyrano[3′,4′:6,7]indolizino[1,2-b]quinoline-3,14(4H)-dione] | 16.9 nM | 387 nM | 32.3 nM | 19 nM |  |
